Reference: PMC7265341, “Quantifying CDK inhibitor selectivity in live cells” (Nature Communications, 2020)
Read-outs that look alike come from different tables or passages of the source.

Columns and labels:
CDK4/Cyclin D1 = CDK4/Cyclin D1 (Homo sapiens, UniProt P11802); experiment: NanoBRET live-cell target engagement, NanoLuc-CDK4/Cyclin D1 in HEK-293; assay type: binding; details: for inhibition at 10 µM: read-out: CDK4/D1 Inhibition at 10µM (%); for IC50: read-out: CDK4/D1 IC50
CDK19/Cyclin C = CDK19/Cyclin C (Homo sapiens, UniProt Q9BWU1); experiment: NanoBRET live-cell target engagement, NanoLuc-CDK19/Cyclin C in HEK-293; details: read-out: CDK19/C Inhibition at 10µM (%), 10µM
CDK2/Cyclin E1 = CDK2/Cyclin E1 (Homo sapiens, UniProt P24941); experiment: NanoBRET live-cell target engagement, CDK2-NanoLuc/Cyclin E1 in HEK-293; assay type: binding; details: for inhibition at 10 µM: read-out: CDK2/E1 Inhibition at 10µM (%); for CDK2 Occupancy (%): Panel A
CDK10/Cyclin L2 = CDK10/Cyclin L2 (Homo sapiens, UniProt Q15131); experiment: NanoBRET live-cell target engagement, CDK10-NanoLuc/Cyclin L2 in HEK-293; details: for inhibition at 10 µM: read-out: CDK10/L2 Inhibition at 10µM (%), 10µM
Sequence of CDK10/Cyclin L2 (Q15131 whole entry): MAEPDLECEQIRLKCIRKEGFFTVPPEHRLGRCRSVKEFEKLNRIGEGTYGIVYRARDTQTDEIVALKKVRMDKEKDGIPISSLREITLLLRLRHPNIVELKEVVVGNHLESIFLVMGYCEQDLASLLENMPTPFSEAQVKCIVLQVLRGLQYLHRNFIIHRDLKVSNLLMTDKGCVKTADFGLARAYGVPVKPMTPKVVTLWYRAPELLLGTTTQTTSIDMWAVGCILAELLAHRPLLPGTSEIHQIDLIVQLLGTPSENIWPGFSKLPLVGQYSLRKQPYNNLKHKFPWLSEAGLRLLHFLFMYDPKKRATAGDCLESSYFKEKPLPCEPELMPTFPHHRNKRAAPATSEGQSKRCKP

CDK14/Cyclin Y = CDK14/Cyclin Y (Homo sapiens, UniProt O94921); experiment: NanoBRET live-cell target engagement, CDK14-NanoLuc/Cyclin Y in HEK-293; assay type: binding; details: for inhibition at 10 µM: read-out: CDK14/Y Inhibition at 10µM (%), 10µM
Sequence of CDK14/Cyclin Y (O94921 whole entry): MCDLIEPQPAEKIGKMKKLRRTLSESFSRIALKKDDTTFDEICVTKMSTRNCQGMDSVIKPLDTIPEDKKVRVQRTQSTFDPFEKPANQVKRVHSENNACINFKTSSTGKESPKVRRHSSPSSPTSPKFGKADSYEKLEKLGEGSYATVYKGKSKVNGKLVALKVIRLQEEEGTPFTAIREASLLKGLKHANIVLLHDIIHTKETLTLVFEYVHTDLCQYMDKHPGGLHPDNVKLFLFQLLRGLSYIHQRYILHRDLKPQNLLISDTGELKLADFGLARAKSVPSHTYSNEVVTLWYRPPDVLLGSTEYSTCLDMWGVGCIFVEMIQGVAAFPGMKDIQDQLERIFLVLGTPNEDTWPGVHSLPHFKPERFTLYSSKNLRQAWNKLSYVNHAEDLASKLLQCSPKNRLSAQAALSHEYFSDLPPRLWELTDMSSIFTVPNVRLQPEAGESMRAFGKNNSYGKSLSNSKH
Sequence of CDK14/Cyclin Y (Q8ND76 whole entry partner): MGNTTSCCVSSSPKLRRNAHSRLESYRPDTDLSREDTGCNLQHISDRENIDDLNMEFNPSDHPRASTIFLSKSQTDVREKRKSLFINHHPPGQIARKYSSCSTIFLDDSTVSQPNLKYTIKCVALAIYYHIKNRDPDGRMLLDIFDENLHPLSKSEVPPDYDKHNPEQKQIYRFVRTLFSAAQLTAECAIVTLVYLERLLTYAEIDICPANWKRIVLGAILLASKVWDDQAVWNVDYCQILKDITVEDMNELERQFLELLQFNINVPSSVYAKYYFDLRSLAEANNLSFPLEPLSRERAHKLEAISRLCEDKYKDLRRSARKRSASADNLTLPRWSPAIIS

CDK11A/Cyclin L2 = molecular target: T1, CDK11A/Cyclin L2 (Homo sapiens, UniProt Q9UQ88); experiment: NanoBRET live-cell target engagement, CDK11A-NanoLuc/Cyclin L2 in HEK-293; assay type: binding; details: read-out: CDK11a/L2 Inhibition at 10µM (%), 10µM
T1 sequence (Q9UQ88 1-783): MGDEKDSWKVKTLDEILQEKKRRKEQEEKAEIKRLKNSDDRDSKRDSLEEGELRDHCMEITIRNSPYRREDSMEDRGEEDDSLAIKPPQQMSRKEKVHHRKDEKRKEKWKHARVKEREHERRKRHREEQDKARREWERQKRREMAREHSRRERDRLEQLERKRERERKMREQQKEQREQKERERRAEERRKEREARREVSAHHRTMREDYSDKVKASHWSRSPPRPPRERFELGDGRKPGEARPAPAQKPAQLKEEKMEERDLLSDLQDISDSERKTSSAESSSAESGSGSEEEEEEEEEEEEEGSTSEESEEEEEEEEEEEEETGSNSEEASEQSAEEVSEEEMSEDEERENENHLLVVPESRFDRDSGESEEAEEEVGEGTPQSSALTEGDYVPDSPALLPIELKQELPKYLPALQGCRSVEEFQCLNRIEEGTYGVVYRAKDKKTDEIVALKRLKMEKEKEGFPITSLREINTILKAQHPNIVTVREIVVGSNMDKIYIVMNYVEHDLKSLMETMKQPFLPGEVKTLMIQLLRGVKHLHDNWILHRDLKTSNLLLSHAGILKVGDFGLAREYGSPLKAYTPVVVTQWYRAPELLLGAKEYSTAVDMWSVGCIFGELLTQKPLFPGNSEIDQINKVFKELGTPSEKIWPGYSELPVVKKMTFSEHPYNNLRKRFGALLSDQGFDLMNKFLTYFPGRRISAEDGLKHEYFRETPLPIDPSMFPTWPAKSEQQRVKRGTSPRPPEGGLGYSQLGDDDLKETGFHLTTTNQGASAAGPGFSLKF

CDK13/Cyclin K = CDK13/Cyclin K (Homo sapiens, UniProt Q14004); experiment: NanoBRET live-cell target engagement, CDK13-NanoLuc/Cyclin K in HEK-293; assay type: binding; details: 10µM, read-out: CDK13/K Inhibition at 10µM (%)
Sequence of CDK13/Cyclin K (O75909 whole entry): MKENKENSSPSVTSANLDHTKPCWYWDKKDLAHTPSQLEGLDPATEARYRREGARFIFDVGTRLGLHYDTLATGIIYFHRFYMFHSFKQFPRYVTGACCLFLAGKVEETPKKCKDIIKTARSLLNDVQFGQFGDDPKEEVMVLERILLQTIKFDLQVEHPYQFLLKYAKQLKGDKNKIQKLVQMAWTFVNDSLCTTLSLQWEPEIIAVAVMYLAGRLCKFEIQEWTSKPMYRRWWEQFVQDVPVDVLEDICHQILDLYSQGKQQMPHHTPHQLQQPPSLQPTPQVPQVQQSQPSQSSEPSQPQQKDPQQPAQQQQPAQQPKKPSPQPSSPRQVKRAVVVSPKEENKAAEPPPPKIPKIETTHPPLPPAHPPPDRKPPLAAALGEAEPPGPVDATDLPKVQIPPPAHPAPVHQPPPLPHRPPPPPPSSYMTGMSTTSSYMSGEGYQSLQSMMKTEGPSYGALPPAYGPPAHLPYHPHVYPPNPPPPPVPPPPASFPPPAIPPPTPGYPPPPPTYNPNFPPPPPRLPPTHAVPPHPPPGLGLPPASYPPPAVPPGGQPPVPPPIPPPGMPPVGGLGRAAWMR
Sequence of CDK13/Cyclin K (Q14004 other isoform, or with tags, fused parts or gaps): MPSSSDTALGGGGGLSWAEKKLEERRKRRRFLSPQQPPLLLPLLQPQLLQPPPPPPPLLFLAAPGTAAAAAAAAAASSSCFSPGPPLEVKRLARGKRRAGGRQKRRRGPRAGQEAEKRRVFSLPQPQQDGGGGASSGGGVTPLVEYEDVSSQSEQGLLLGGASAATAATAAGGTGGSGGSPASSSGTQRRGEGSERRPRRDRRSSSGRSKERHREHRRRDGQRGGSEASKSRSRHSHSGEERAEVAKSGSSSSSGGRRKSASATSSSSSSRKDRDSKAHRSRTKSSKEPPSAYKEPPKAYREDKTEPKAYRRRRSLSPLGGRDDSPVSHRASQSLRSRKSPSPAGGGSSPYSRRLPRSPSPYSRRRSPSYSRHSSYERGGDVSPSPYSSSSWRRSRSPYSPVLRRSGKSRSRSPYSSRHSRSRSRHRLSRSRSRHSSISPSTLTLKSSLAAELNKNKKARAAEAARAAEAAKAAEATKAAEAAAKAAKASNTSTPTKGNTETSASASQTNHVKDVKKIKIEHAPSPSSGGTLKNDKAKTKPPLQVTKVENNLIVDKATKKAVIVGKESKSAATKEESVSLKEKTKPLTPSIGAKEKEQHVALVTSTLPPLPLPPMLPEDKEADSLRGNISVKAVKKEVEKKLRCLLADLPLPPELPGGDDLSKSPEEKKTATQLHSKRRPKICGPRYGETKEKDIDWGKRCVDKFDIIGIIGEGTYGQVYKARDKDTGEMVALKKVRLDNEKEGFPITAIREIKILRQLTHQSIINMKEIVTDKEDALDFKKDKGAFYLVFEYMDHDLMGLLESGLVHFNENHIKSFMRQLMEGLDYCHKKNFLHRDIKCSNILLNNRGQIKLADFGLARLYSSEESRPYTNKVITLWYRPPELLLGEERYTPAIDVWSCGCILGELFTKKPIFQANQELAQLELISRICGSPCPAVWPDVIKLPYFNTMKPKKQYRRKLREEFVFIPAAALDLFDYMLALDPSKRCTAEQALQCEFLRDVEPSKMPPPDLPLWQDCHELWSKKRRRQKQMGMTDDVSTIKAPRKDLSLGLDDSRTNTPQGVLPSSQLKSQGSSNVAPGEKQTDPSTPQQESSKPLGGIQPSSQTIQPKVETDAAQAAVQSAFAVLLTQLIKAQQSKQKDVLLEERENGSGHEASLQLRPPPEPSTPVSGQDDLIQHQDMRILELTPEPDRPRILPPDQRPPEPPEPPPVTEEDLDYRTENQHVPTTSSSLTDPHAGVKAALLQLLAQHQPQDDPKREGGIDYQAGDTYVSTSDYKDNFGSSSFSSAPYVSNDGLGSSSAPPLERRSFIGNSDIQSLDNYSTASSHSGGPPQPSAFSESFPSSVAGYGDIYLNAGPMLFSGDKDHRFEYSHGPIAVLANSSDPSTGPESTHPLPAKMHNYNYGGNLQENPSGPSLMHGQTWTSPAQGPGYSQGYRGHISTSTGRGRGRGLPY

CDK18/Cyclin Y = CDK18/Cyclin Y (Homo sapiens, UniProt Q07002); experiment: NanoBRET live-cell target engagement, CDK18-NanoLuc/Cyclin Y in HEK-293; assay type: binding; details: for IC50: read-out: CDK18/Y IC50; for inhibition at 10 µM: read-out: CDK18/Y Inhibition at 10µM (%), 10µM
Sequence of CDK18/Cyclin Y (Q07002 whole entry): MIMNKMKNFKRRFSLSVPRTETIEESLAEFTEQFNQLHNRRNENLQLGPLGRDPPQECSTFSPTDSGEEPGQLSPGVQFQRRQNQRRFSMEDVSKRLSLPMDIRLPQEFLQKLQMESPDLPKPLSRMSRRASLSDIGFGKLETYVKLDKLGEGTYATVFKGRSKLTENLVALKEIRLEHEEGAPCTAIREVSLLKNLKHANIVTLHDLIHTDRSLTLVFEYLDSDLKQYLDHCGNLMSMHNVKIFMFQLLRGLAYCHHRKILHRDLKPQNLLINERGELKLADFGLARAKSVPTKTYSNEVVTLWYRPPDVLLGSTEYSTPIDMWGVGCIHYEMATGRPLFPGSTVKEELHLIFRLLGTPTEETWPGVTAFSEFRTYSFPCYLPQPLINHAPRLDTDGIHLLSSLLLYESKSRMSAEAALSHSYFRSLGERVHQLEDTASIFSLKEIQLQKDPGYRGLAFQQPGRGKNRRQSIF
Sequence of CDK18/Cyclin Y (Q8ND76 whole entry partner): as the sequence (Q8ND76 whole entry partner) above

CDK5/CDK5R1 = CDK5/CDK5R1 (Homo sapiens, UniProt Q00535); experiment: NanoBRET live-cell target engagement, CDK5-NanoLuc/CDK5R1 in HEK-293; assay type: binding; details: for inhibition at 10 µM: read-out: CDK5/CDK5R1 Inhibition at 10µM (%); for IC50: read-out: CDK5/CDK5R1 IC50
Sequence of CDK5/CDK5R1 (Q00535 whole entry): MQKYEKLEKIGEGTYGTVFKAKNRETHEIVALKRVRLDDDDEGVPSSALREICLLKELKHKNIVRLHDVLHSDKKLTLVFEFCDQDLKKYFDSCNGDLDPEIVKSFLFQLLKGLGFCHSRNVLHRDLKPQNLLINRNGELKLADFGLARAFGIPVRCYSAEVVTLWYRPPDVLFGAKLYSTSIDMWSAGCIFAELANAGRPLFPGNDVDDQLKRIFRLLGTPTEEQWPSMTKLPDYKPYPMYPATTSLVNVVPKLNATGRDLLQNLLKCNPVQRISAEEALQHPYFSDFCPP
Sequence of CDK5/CDK5R1 (Q15078 whole entry partner): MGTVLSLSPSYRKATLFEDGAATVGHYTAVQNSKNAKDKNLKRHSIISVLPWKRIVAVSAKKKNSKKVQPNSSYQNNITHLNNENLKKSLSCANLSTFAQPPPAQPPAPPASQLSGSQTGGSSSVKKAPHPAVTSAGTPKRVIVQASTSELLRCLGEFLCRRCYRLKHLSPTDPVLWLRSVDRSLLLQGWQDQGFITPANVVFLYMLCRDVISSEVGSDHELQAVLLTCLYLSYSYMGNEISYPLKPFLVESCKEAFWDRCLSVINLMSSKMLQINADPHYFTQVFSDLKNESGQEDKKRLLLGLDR

Sequence of CDK4/Cyclin D1 (P11802 whole entry): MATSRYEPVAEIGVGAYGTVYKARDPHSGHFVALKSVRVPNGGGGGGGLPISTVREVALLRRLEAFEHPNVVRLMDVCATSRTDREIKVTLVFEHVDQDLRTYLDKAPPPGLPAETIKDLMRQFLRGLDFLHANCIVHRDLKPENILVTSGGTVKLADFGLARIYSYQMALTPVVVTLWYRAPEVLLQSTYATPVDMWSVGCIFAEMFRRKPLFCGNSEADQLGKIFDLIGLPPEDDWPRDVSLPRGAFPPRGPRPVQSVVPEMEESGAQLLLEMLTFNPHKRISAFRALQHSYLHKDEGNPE
Sequence of CDK4/Cyclin D1 (P24385 whole entry partner): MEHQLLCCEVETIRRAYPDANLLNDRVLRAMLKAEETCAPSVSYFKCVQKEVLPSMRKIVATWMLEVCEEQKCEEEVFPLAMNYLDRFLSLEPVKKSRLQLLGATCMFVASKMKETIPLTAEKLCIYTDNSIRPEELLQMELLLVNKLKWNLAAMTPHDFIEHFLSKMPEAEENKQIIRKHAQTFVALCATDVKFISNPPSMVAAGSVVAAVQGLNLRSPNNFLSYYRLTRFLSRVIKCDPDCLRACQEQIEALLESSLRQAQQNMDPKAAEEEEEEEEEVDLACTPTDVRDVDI

SMILES: COCCN1CCN(Cc2ccc(-c3n[nH]c4c3C(=O)c3c(NC(=O)NN5CCOCC5)cccc3-4)cc2)CC1 [RGB286638]
- inhibition at 10 µM (CDK4/Cyclin D1; independent experiment 1): 99.7%
- inhibition at 10 µM (CDK4/Cyclin D1; independent experiment 2): 100%
- IC50 (CDK4/Cyclin D1; average (± SEM where n=3)): 10 nM
- IC50 (CDK4/Cyclin D1; independent experiment 1): 9.6 nM
- IC50 (CDK4/Cyclin D1; independent experiment 2): 11 nM
- inhibition at 10 µM (CDK19/Cyclin C; average of experiments): 58%
- inhibition at 10 µM (CDK19/Cyclin C; independent experiment 1): 32.8%
- inhibition at 10 µM (CDK19/Cyclin C; independent experiment 2): 83.3%
- inhibition at 10 µM (CDK2/Cyclin E1; average of experiments): 84.4%
- inhibition at 10 µM (CDK2/Cyclin E1; independent experiment 1): 83.7%
- inhibition at 10 µM (CDK2/Cyclin E1; independent experiment 2): 85.1%
- CDK2 Occupancy (%) (CDK2/Cyclin E1; LOG10([RGB-286638]) 0.045757 LOG10(µM)): 96.9519%
- CDK2 Occupancy (%) (CDK2/Cyclin E1; LOG10([RGB-286638]) 0.522879 LOG10(µM)): 98.1016%
- CDK2 Occupancy (%) (CDK2/Cyclin E1; LOG10([RGB-286638]) 1 LOG10(µM)): 98.1016%
- CDK2 Occupancy (%) (CDK2/Cyclin E1; LOG10([RGB-286638]) -0.43136 LOG10(µM)): 95.1872%
- CDK2 Occupancy (%) (CDK2/Cyclin E1; LOG10([RGB-286638]) -0.90849 LOG10(µM)): 90.2941%
- CDK2 Occupancy (%) (CDK2/Cyclin E1; LOG10([RGB-286638]) -1.38561 LOG10(µM)): 78.6096%
- CDK2 Occupancy (%) (CDK2/Cyclin E1; LOG10([RGB-286638]) -1.86273 LOG10(µM)): 57.754%
- CDK2 Occupancy (%) (CDK2/Cyclin E1; LOG10([RGB-286638]) -2.33985 LOG10(µM)): 30.4813%
- CDK2 Occupancy (%) (CDK2/Cyclin E1; LOG10([RGB-286638]) -2.81697 LOG10(µM)): 11.4973%
- CDK2 Occupancy (%) (CDK2/Cyclin E1; LOG10([RGB-286638]) -3.29409 LOG10(µM)): 5.615%
- CDK2 Occupancy (%) (CDK2/Cyclin E1; LOG10([RGB-286638]) -3.77121 LOG10(µM)): 0.2674%
- IC50 (CDK2/Cyclin E1; average (± SEM where n=3), read-out: CDK2/E1 IC50): 14 ± 5 nM
- IC50 (CDK2/Cyclin E1; independent experiment 1, read-out: CDK2/E1 IC50): 8.9 nM
- IC50 (CDK2/Cyclin E1; independent experiment 2, read-out: CDK2/E1 IC50): 9.8 nM
- IC50 (CDK2/Cyclin E1; independent experiment 3, read-out: CDK2/E1 IC50): 23 nM
- IC50 (CDK2/Cyclin E1; live HEK-293, 2 h, mean ± S.E.M. (n=3) or mean (n=2), read-out: IC50 for CDK/cyclin complexes, CDK2/E1): 12 to 16 nM
- IC50 (CDK10/Cyclin L2; CDK10/L2 IC50 (nM), average (± SEM where n=3)): 790 nM
- IC50 (CDK10/Cyclin L2; CDK10/L2 IC50 (nM), independent experiment 1): 790 nM
- IC50 (CDK10/Cyclin L2; CDK10/L2 IC50 (nM), independent experiment 2): 780 nM
- IC50 (CDK10/Cyclin L2; IC50 for CDK/cyclin complexes, CDK10/L2, live HEK-293, 2 h, mean ± S.E.M. (n=3) or mean (n=2)): 790 nM
- inhibition at 10 µM (CDK10/Cyclin L2; average of experiments): 61.4%
- inhibition at 10 µM (CDK10/Cyclin L2; independent experiment 1): 37.8%
- inhibition at 10 µM (CDK10/Cyclin L2; independent experiment 2): 85.1%
- IC50 (CDK14/Cyclin Y; average (± SEM where n=3), read-out: CDK14/Y IC50): 31 nM
- IC50 (CDK14/Cyclin Y; independent experiment 1, read-out: CDK14/Y IC50): 30 nM
- IC50 (CDK14/Cyclin Y; independent experiment 2, read-out: CDK14/Y IC50): 31 nM
- IC50 (CDK14/Cyclin Y; live HEK-293, 2 h, mean ± S.E.M. (n=3) or mean (n=2), read-out: IC50 for CDK/cyclin complexes, CDK14/Y): 31 nM
- inhibition at 10 µM (CDK14/Cyclin Y; average of experiments): 95.9%
- inhibition at 10 µM (CDK14/Cyclin Y; independent experiment 1): 94.1%
- inhibition at 10 µM (CDK14/Cyclin Y; independent experiment 2): 97.8%
- inhibition at 10 µM (CDK11A/Cyclin L2; average of experiments): 41.5%
- inhibition at 10 µM (CDK11A/Cyclin L2; independent experiment 1): 16.8%
- inhibition at 10 µM (CDK11A/Cyclin L2; independent experiment 2): 66.3%
- inhibition at 10 µM (CDK13/Cyclin K; average of experiments): 49.1%
- inhibition at 10 µM (CDK13/Cyclin K; independent experiment 1): 33.8%
- inhibition at 10 µM (CDK13/Cyclin K; independent experiment 2): 64.5%
- IC50 (CDK18/Cyclin Y; average (± SEM where n=3)): 10 nM
- IC50 (CDK18/Cyclin Y; independent experiment 1): 8.6 nM
- IC50 (CDK18/Cyclin Y; independent experiment 2): 11 nM
- inhibition at 10 µM (CDK18/Cyclin Y; average of experiments): 99.6%
- inhibition at 10 µM (CDK18/Cyclin Y; independent experiment 1): 97.4%
- inhibition at 10 µM (CDK18/Cyclin Y; independent experiment 2): 102%
- inhibition at 10 µM (CDK5/CDK5R1; average of experiments): 84.4%
- inhibition at 10 µM (CDK5/CDK5R1; independent experiment 1): 71.7%
- inhibition at 10 µM (CDK5/CDK5R1; independent experiment 2): 97.2%
- IC50 (CDK5/CDK5R1; average (± SEM where n=3)): 75 nM
- IC50 (CDK5/CDK5R1; independent experiment 1): 80 nM
- IC50 (CDK5/CDK5R1; independent experiment 2): 70 nM
